Assays:
Streptococcus mutans [1] = assay: Substrate activity at 6xHis-tagged Streptococcus mutans UdpK expressed in Escherichia coli BL-21(DE3) assessed as measuring ADP level in presence of ATP/NADH by PK/LDH coupled assay
Streptococcus mutans [2] = assay: Substrate activity at wild-type Streptococcus mutans UdpK expressed in Escherichia coli C43(DE3) in presence of ATP/NADH by PK/LDH coupled assay

Row | SMILES | Activity (Streptococcus mutans [1]) | Activity (Streptococcus mutans [2]) | further results
1 | CC(C)=CCC/C(C)=C\CC/C(C)=C\CO | 21.2 µmol/mg/min | – | –
2 | CC(C)=CCC/C(C)=C/CC/C(C)=C/CC/C(C)=C\CC/C(C)=C\CC/C(C)=C\CC/C(C)=C\CC/C(C)=C\CO | 3.8 µmol/mg/min | – | –
3 | CCCCCCCCCCCCCCCCO | 1.9 µmol/mg/min | – | –
4 | CC(C)=CCC/C(C)=C/CC/C(C)=C/CO | 11.5 µmol/mg/min | – | –
5 | C/C(=C/CO)CC/C=C(/C)CC/C=C(/C)CC/C=C(/C)CC/C=C(/C)CC/C=C(/C)CC/C=C(/C)CC/C=C(\C)CC/C=C(\C)CC/C=C(\C)CCCNC1CC(C)(C)N([O])C(C)(C)C1 | – | 5.1 µmol/mg/min | –
6 | C/C(=C/CO)CC/C=C(/C)CC/C=C(/C)CC/C=C(/C)CC/C=C(/C)CC/C=C(/C)CC/C=C(/C)CC/C=C(\C)CC/C=C(\C)CC/C=C(\C)CCCNc1ccc([N+](=O)[O-])cc1 | – | 9 µmol/mg/min | –
7 | C/C(=C/CO)CC/C=C(/C)CC/C=C(/C)CC/C=C(/C)CC/C=C(/C)CC/C=C(/C)CC/C=C(/C)CC/C=C(\C)CC/C=C(\C)CC/C=C(\C)CCCNCc1ccc(C2(C(F)(F)F)N=N2)cc1 | – | 5.1 µmol/mg/min | –
8 | C/C(=C/CO)CC/C=C(/C)CC/C=C(/C)CC/C=C(/C)CC/C=C(/C)CC/C=C(/C)CC/C=C(/C)CC/C=C(\C)CC/C=C(\C)CC/C=C(\C)CCCNc1ccccc1C(N)=O | – | 6.9 µmol/mg/min | –
9 | CC(C)=CCC/C(C)=C/CC/C(C)=C/CC/C(C)=C\CC/C(C)=C\CC/C(C)=C\CC/C(C)=C\CC/C(C)=C\CC/C(C)=C\CC/C(C)=C\CC/C(C)=C\CC/C(C)=C\CCC(C)CCO (stereo unspecified) | 4.5 µmol/mg/min | – | –
10 | CC(C)=CCC/C(C)=C/CO | 6.2 µmol/mg/min | – | –
11 | C/C(=C/CC/C(C)=C\CC/C(C)=C\CC/C(C)=C\COC1CCCCO1)CC/C=C(/C)CC/C=C(/C)CC/C=C(/C)CC/C=C(\C)CC/C=C(\C)CC/C=C(\C)CCCO (stereo unspecified) | – | 3.4 µmol/mg/min | –
12 | CC(C)=CCC/C(C)=C/CC/C(C)=C/CC/C(C)=C/CC/C(C)=C\CC/C(C)=C\CC/C(C)=C\CC/C(C)=C\CC/C(C)=C\CC/C(C)=C\CO | 3.8 µmol/mg/min | – | –
13 | CC(=O)SCCC/C(C)=C/CC/C(C)=C/CC/C(C)=C/CC/C(C)=C\CC/C(C)=C\CC/C(C)=C\CC/C(C)=C\CC/C(C)=C\CC/C(C)=C\CC/C(C)=C\CO | – | 11.8 µmol/mg/min | –
14 | C/C(=C\CO)CCCC(C)CCCC(C)CCCC(C)C (stereo unspecified) | 5.6 µmol/mg/min | – | –
15 | C/C(=C/CO)CC/C=C(\C)CC/C=C(\C)CC/C=C(\C)CC/C=C(\C)CNS(=O)(=O)c1ccc(N=Nc2ccc(N(C)C)cc2)cc1 | 5.9 µmol/mg/min | – | –
16 | C/C(=C/CO)CC/C=C(/C)CC/C=C(\C)CC/C=C(\C)CC/C=C(\C)CNS(=O)(=O)c1ccc(N=Nc2ccc(N(C)C)cc2)cc1 | 4 µmol/mg/min | – | –

Row | SMILES | Activity (Streptococcus mutans [1]) | Activity (Streptococcus mutans [2]) | further results
17 | C/C(=C/CO)CC/C=C(/C)CC/C=C(/C)CC/C=C(/C)CC/C=C(/C)CC/C=C(/C)CC/C=C(/C)CC/C=C(\C)CC/C=C(\C)CC/C=C(\C)CCC1OC1(C)C (stereo unspecified) | – | 8.1 µmol/mg/min | –
18 | CCCCCCCCCCCO | 2.1 µmol/mg/min | – | –
19 | C#Cc1cccc(NCCC/C(C)=C/CC/C(C)=C/CC/C(C)=C/CC/C(C)=C\CC/C(C)=C\CC/C(C)=C\CC/C(C)=C\CC/C(C)=C\CC/C(C)=C\CC/C(C)=C\CO)c1 | – | 9 µmol/mg/min | –
20 | CC(C)=CCC/C(C)=C/CC/C(C)=C/CC/C(C)=C/CO | 9.3 µmol/mg/min | – | –
21 | CCCCCCCCCCCCCCCCCCCCO | 1.3 µmol/mg/min | – | –
22 | CC(C)=CCC/C(C)=C/CC/C(C)=C\CO | 5.4 µmol/mg/min | – | –
23 | C#CCNCCC/C(C)=C/CC/C(C)=C/CC/C(C)=C/CC/C(C)=C\CC/C(C)=C\CC/C(C)=C\CC/C(C)=C\CC/C(C)=C\CC/C(C)=C\CC/C(C)=C\CO | – | 7.1 µmol/mg/min | –
24 | C/C(=C/CO)CC/C=C(/C)CC/C=C(/C)CC/C=C(/C)CC/C=C(/C)CC/C=C(/C)CC/C=C(/C)CC/C=C(\C)CC/C=C(\C)CC/C=C(\C)CCCNc1ccc(N=[N+]=[N-])cc1 | – | 9.4 µmol/mg/min | –
25 | C/C(=C\CO)CC/C=C(\C)CC/C=C(\C)CC/C=C(\C)CC/C=C(\C)CNS(=O)(=O)c1ccc(N=Nc2ccc(N(C)C)cc2)cc1 | 3.3 µmol/mg/min | – | –
26 | CC(C)=CCC/C(C)=C/CC/C(C)=C/CC/C(C)=C/CC/C(C)=C\CC/C(C)=C\CC/C(C)=C\CC/C(C)=C\CC/C(C)=C\CC/C(C)=C\CC/C(C)=C\CO | – | – | Activity (Streptococcus mutans [2]; tested as the 2H-labelled form): 9.4 µmol/mg/min
27 | C/C(=C/CO)CC/C=C(/C)CC/C=C(/C)CC/C=C(/C)CC/C=C(/C)CC/C=C(/C)CC/C=C(/C)CC/C=C(\C)CC/C=C(\C)CC/C=C(\C)CCCN=[N+]=[N-] | – | 10.8 µmol/mg/min | –
28 | CC(C)=CCC/C(C)=C/CC/C(C)=C/CC/C(C)=C/CC/C(C)=C/CC/C(C)=C/CC/C(C)=C/CC/C(C)=C/CC/C(C)=C/CO | 4.9 µmol/mg/min | – | –
29 | CC(C)=CCC/C(C)=C/CC/C(C)=C/CC/C(C)=C\CC/C(C)=C\CC/C(C)=C\CC/C(C)=C\CO | 8.8 µmol/mg/min | – | –
30 | C/C(=C/CO)CC/C=C(/C)CC/C=C(/C)CC/C=C(\C)CC/C=C(\C)CNS(=O)(=O)c1ccc(N=Nc2ccc(N(C)C)cc2)cc1 | 4.1 µmol/mg/min | – | –
31 | C/C(=C/CO)CC/C=C(/C)CC/C=C(/C)CC/C=C(/C)CC/C=C(/C)CC/C=C(/C)CC/C=C(/C)CC/C=C(\C)CC/C=C(\C)CC/C=C(\C)CCCNc1cc2ccc3cccc4ccc(c1)c2c34 | – | 6.2 µmol/mg/min | –

— ChEMBL document CHEMBL5104096, “Undecaprenol kinase: Function, mechanism and substrate specificity of a potential antibiotic target” (Eur J Med Chem, 2021)
